From ChEMBL document CHEMBL4118185, “Kakeromamide A, a new cyclic pentapeptide inducing astrocyte differentiation isolated from the marine cyanobacterium Moorea bouillonii” (Bioorg Med Chem Lett, 2018)
The source made the active and inactive calls. The rule behind the calls is not given here.

Key:
P388 = test: Cytotoxicity against mouse P388 cells at 10 uM after 72 hrs by MTT assay; format: functional, cell-based
HeLa = test: Cytotoxicity against human HeLa cells after 72 hrs by MTT assay; format: functional, cell-based
Mus musculus [1] = species: Mus musculus; test: Suppression of differentiation of mouse neuronal stem cells into neurons at 2.5 to 10 uM after 72 hrs by NeuO-Hoechst 33342 staining-based microscopic method; format: functional
Mus musculus [2] = species: Mus musculus; test: Induction of differentiation of mouse neuronal stem cells into astrocytes after 72 hrs by Hoechst 33342 staining based immunofluorescence assay; format: functional
[3] = Cytotoxicity against mouse neuronal stem cells at 2.5 to 10 after 72 hrs; format: cell-based

CCC[C@H]1NC(=O)c2csc(n2)[C@H](C(C)C)NC(=O)[C@H](Cc2ccc(OC)cc2)N(C)C(=O)[C@H](Cc2ccc(OC)cc2)N(C)C(=O)[C@H](C(C)C)NC(=O)[C@H]1C
Activity (P388): inactive
IC50 (HeLa): 10 µM
Activity (Mus musculus [1]): Active
Activity (Mus musculus [2]): Dose-dependent effect
Activity [3]: Non-Toxic
